# Target: T1, Wee1 kinase domain (Homo sapiens, UniProt P30291)
# T1 construct: Wee1 kinase domain was purchased from Carna (catalog #05-177); purchased Carna 05-177
# Experiment: Wee1 Kinase Biochemical Assay (ADP-Glo)
# Conditions: 1 nM Wee1 enzyme, 15 uM ATP, 4 hours at 25° C
# Method in brief: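 ADP-Glo luminescence readout of ADP produced by 1 nM kinase domain phosphorylating Poly(Lys,Tyr 4:1) (2 ng/mL) at 15 uM ATP. Reaction ran 4 h, 25 °C, in Tris/MgCl2 buffer with BSA and DTT. Inhibition scaled between DMSO (high) and saturating control inhibitor (low).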
# T1 sequence (P30291 299-569 limits assumed): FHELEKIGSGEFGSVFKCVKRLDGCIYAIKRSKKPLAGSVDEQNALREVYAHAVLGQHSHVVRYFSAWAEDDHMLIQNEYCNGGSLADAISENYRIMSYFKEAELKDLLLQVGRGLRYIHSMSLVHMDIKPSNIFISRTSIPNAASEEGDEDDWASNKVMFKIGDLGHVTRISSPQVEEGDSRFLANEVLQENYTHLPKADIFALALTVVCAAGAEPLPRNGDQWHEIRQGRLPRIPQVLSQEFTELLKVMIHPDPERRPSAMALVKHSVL
row,IC50 [µM],SMILES
1,< 0.01,"CC1(C)C[C@H]2N(c3cccc(N=S(C)(C)=O)n3)c3nc(Nc4cncc(C(F)F)c4)ncc3[C@@]2(C)CO1 (single isomer, unassigned) [Example 815]"
2,< 0.01,"Cc1cc(Nc2ncc3c(n2)N(c2cccc(N=S(C)(C)=O)n2)C2CC(C)(C)OCC32C)cc(=O)n1C (single isomer, unassigned) [Example 816]"
3,< 0.01,"CC1(C)C[C@H]2N(c3cccc(N=S(C)(C)=O)n3)c3nc(Nc4cncnc4)ncc3[C@@]2(C)CO1 (single isomer, unassigned) [Example 817]"
4,< 0.01,"CC1(C)C[C@H]2N(c3cccc(N=S(C)(C)=O)n3)c3nc(Nc4cncc(C#N)c4)ncc3[C@@]2(C)CO1 (single isomer, unassigned) [Example 818]"
5,< 0.01,"CN(C)C1CCN(c2ccc(Nc3ncc4c(n3)N(c3ccccn3)[C@@H]3CC(C)(C)OC[C@]43C)cc2)CC1 (single isomer, unassigned) [Example 819]"
6,< 0.01,"CN1CCCC12CCN(c1ccc(Nc3ncc4c(n3)N(c3ccccn3)[C@@H]3CC(C)(C)OC[C@]43C)cc1)CC2 (single isomer, unassigned) [Example 823]"
7,< 0.01,"CC1(C)C[C@H]2N(c3cccc(N=S(C)(C)=O)n3)c3nc(Nc4ccn(C5CCN(C6COC6)CC5)c(=O)c4)ncc3[C@@]2(C)CO1 (single isomer, unassigned) [Example 824]"
8,< 0.01,"COCCN1CCC(n2ccc(Nc3ncc4c(n3)N(c3cccc(N=S(C)(C)=O)n3)[C@@H]3CC(C)(C)OC[C@]43C)cc2=O)CC1 (single isomer, unassigned) [Example 825]"
9,< 0.01,"CN1CCN(c2ccc(Nc3ncc4c(n3)N(c3ccc(=O)n(C)n3)[C@@H]3CC(C)(C)OC[C@]43C)cc2)CC1 (single isomer, unassigned) [Example 826]"
10,< 0.01,"CN1CCN(c2ccc(Nc3ncc4c(n3)N(c3cnccn3)[C@@H]3CC(C)(C)OC[C@]43C)cc2)CC1 (single isomer, unassigned) [Example 827]"
11,< 0.01,"CN1CCN(c2ccc(Nc3ncc4c(n3)N(c3cccnn3)[C@@H]3CC(C)(C)OC[C@]43C)cc2)CC1 (single isomer, unassigned) [Example 828]"
12,< 0.01,"CC(C)n1nc(N2c3nc(Nc4ccc(N5CCN(C)CC5)cc4)ncc3[C@@]3(C)COC(C)(C)C[C@@H]23)ccc1=O (single isomer, unassigned) [Example 829]"
13,< 0.01,"CCn1ccc(Nc2ncc3c(n2)N(c2cccc(N=S(C)(C)=O)n2)[C@@H]2CC(C)(C)OC[C@]32C)n1 (single isomer, unassigned) [Example 830]"
14,< 0.01,"CC1(C)C[C@H]2N(c3cccc(N=S(C)(C)=O)n3)c3nc(Nc4ccn(C5CC5)n4)ncc3[C@@]2(C)CO1 (single isomer, unassigned) [Example 831]"
15,< 0.01,"CC(C)n1ccc(Nc2ncc3c(n2)N(c2cccc(N=S(C)(C)=O)n2)[C@@H]2CC(C)(C)OC[C@]32C)n1 (single isomer, unassigned) [Example 832]"

# Same assay, conditions: Wee1 kinase domain, 15 uM ATP, ADP-Glo
row,IC50 [µM],SMILES
1,0.01 to 0.1,"CNCc1cccc(N2c3nc(Nc4ccc(N5CC6CC5CO6)cc4)ncc3[C@]3(C)COC(C)(C)C[C@H]23)n1 (stereo in doubt) [Example 42, (4bS,8aS)-N-(4-((1R,4R)-2-oxa-5-azabicyclo[2.2.1]heptan-5-yl)phenyl)-4b,7,7-trimethyl-9-(6-((methylamino)methyl)pyridin-2-yl)-4b,5,7,8,8a,9-hexahydropyrano[3′,4′:4,5]pyrrolo[2,3-d]pyrimidin-2-amine]"
2,0.1 to 1,"CNCc1cccc(N2c3nc(Nc4ccc(N5C[C@@H](C)O[C@@H](C)C5)cc4)ncc3[C@]3(C)COC(C)(C)C[C@H]23)n1 [Example 19, (4bS,8aS)-N-(4-((2S,6R)-2,6-dimethylmorpholino)phenyl)-4b,7,7-trimethyl-9-(6-((methylamino)methyl)pyridin-2-yl)-4b,5,7,8,8a,9-hexahydropyrano[3′,4′:4,5]pyrrolo[2,3-d]pyrimidin-2-amine]"
3,≥ 1,"CNCc1cccc(N2c3nc(NC45CC(C4)C5)ncc3[C@@]3(C)COC(C)(C)C[C@@H]23)n1 [Example 89, (4bR,8aR)-N-(bicyclo[1.1.1]pentan-1-yl)-4b,7,7-trimethyl-9-(6-((methylamino)methyl)pyridin-2-yl)-4b,5,7,8,8a,9-hexahydropyrano[3′,4′:4,5]pyrrolo[2,3-d]pyrimidin-2-amine]"
4,0.1 to 1,"CN1CCN(c2ccc(Nc3ncc4c(n3)N(c3cccc(N=S(C)(C)=O)n3)[C@H]3CC(C)(C)OC[C@@]43C)cc2)CC1 [Example 99, dimethyl((6-((4bS,8aS)-4b,7,7-trimethyl-2-((4-(4-methylpiperazin-1-yl)phenyl)amino)-4b,7,8,8a-tetrahydropyrano[3′,4′:4,5]pyrrolo[2,3-d]pyrimidin-9(5H)-yl)pyridin-2-yl)imino)-16-sulfanone]"
5,0.1 to 1,"CN1CCC(n2cc(Nc3ncc4c(n3)N(c3cccc(N=S(C)(C)=O)n3)[C@H]3CC(C)(C)OC[C@@]43C)cn2)C1 (stereo partly drawn) [Example 195, dimethyl((6-((4bS,8aS)-4b,7,7-trimethyl-2-((1-((R)-1-methylpyrrolidin-3-yl)-1H-pyrazol-4-yl)amino)-4b,7,8,8a-tetrahydropyrano[3′,4′:4,5]pyrrolo[2,3-d]pyrimidin-9(5H)-yl)pyridin-2-yl)imino)-16-sulfanone]"
6,< 0.01,"CC1(C)C[C@H]2N(c3cccc(N=S(C)(C)=O)n3)c3nc(Nc4ccc5nccn5n4)ncc3[C@@]2(C)CO1 [Example 361, ((6-((4bR,8aR)-2-(imidazo[1,2-b]pyridazin-6-ylamino)-4b,7,7-trimethyl-4b,7,8,8a-tetrahydropyrano[3′,4′:4,5]pyrrolo[2,3-d]pyrimidin-9(5H)-yl)pyridin-2-yl)imino)dimethyl-l6-sulfanone]"

# Same assay, conditions: class symbols; 1 nM Wee1 enzyme, 15 uM ATP, 4 hours at 25° C.
row,IC50 [µM],SMILES
1,0.01 to 0.1,"CNCc1cccc(N2c3nc(NC(=O)C4CC4)ncc3[C@@]3(C)COC(C)(C)C[C@@H]23)n1 (single isomer, unassigned) [Example 762]"
2,0.01 to 0.1,"CN1CC[C@H](OC(=O)Nc2ncc3c(n2)N(c2cccc(N=S(C)(C)=O)n2)[C@@H]2CC(C)(C)OC[C@]32C)C1 (single isomer, unassigned) [Example 773]"
3,< 0.01,"CN1CC2(C1)CN(c1ccc(Nc3ncc4c(n3)N(c3cccc(N5C(=O)OCC5(C)C)n3)[C@@H]3CC(C)(C)OC[C@]43C)cc1)C2 (single isomer, unassigned) [Example 785]"
4,< 0.01,"CN1CC2(C1)CN(c1ccc(Nc3ncc4c(n3)N(c3cccc(N5C(=O)CCC5(C)C)n3)[C@@H]3CC(C)(C)OC[C@]43C)cc1)C2 (single isomer, unassigned) [Example 786]"
5,< 0.01,"CC1(C)C[C@H]2N(c3cccc(N=S(C)(C)=O)n3)c3nc(Nc4ccn(C5CCC5)c(=O)c4)ncc3[C@@]2(C)CO1 (single isomer, unassigned) [Example 802]"
6,< 0.01,"CN1C[C@@H]2CN(c3ccc(Nc4ncc5c(n4)N(c4ccccn4)[C@@H]4CC(C)(C)OC[C@]54C)cc3)C[C@@H]2C1 (single isomer, unassigned) [Example 803]"
7,< 0.01,"CN1CCC(n2ccc(Nc3ncc4c(n3)N(c3ccccn3)[C@@H]3CC(C)(C)OC[C@]43C)cc2=O)CC1 (single isomer, unassigned) [Example 806]"
8,< 0.01,"CN1CCN(c2ccc(Nc3ncc4c(n3)N(c3cccc(C(F)F)n3)[C@@H]3CC(C)(C)OC[C@]43C)cc2)CC1 (single isomer, unassigned) [Example 807]"
9,0.01 to 0.1,"C[C@H]1CCC(=O)N1c1cccc(N2c3nc(Nc4cnn(C5CCN(C)CC5)c4)ncc3C3(C)COC(C)(C)CC23)n1 (stereo in doubt) [Example 555, (S)-5-methyl-1-(6-((4bS,8aS)-4b,7,7-trimethyl-2-((1-(1-methylpiperidin-4-yl)-1H-pyrazol-4-yl)amino)-4b,7,8,8a-tetrahydropyrano[3′,4′:4,5]pyrrolo[2,3-d]pyrimidin-9(5H)-yl)pyridin-2-yl)pyrrolidin-2-one]"
10,0.01 to 0.1,"CC1(C)CC2N(c3cccc([C@@H]4COCCN4)n3)c3nc(Nc4ccc(N5CCOCC5)cc4)ncc3C2(C)CO1 (stereo in doubt) [Example 733, (4bS,8aS)-4b,7,7-trimethyl-9-(6-((R)-morpholin-3-yl)pyridin-2-yl)-N-(4-morpholinophenyl)-4b,5,7,8,8a,9-hexahydropyrano[3′,4′:4,5]pyrrolo[2,3-d]pyrimidin-2-amine]"
11,0.01 to 0.1,"CC1(C)C[C@@H]2N(c3cccc(N4CCOC4=O)n3)c3nc(Nc4ccc([C@H]5CCNC5)cc4)ncc3[C@]2(C)CO1 [Example 609, 3-(6-((4bS,8aS)-4b,7,7-trimethyl-2-((4-((R)-pyrrolidin-3-yl)phenyl)amino)-4b,7,8,8a-tetrahydropyrano[3′,4′:4,5]pyrrolo[2,3-d]pyrimidin-9(5H)-yl)pyridin-2-yl)oxazolidin-2-one]"
12,≥ 1,"CN(C)Cc1cccc(N2c3nc(Nc4ccc(C(C)(C)C(=O)O)cc4)ncc3[C@]3(C)COC(C)(C)C[C@H]23)n1 [Example 610, 2-(4-(((4bS,8aS)-9-(6-((dimethylamino)methyl)pyridin-2-yl)-4b,7,7-trimethyl-4b,5,7,8,8a,9-hexahydropyrano[3′,4′:4,5]pyrrolo[2,3-d]pyrimidin-2-yl)amino)phenyl)-2-methylpropanoic acid]"
13,0.1 to 1,"CC1(C)C[C@@H]2N(c3cccc(N4CCOC4=O)n3)c3nc(Nc4ccc(O[C@H]5CCNC5)cc4)ncc3[C@]2(C)CO1 [Example 612, 3-(6-((4bS,8aS)-4b,7,7-trimethyl-2-((4-(((S)-pyrrolidin-3-yl)oxy)phenyl)amino)-4b,7,8,8a-tetrahydropyrano[3′,4′:4,5]pyrrolo[2,3-d]pyrimidin-9(5H)-yl)pyridin-2-yl)oxazolidin-2-one]"
